We go through eight compounds from patent US9643974B2, “Amino-substituted imidazopyridazines” (Bayer Intellectual Property GmbH, priority 2011, dated 2017).

One test addresses T1, human full-lengt MKNK1 (Homo sapiens, UniProt Q9BUB5, T385D).
T1 construct: purchased Carna Biosciences 02-145; host or cells: insect cells (baculovirus expression system)
The experiment in a line: MKNK1 kinase assay (MKNK1 TR-FRET assay). The class given is biochemical. The settings on record: ATP final conc. 10 μM, 15 min preincubation, 45 min reaction at 22° C. An excerpt:
MKNK1-inhibitory activity of compounds of the present invention was quantified employing the MKNK1 TR-FRET assay as described in the following paragraphs.
A recombinant fusion protein of Glutathione-S-Transferase (GST, N-terminally) and human full-lengt MKNK1 (amino acids 1-424 and T344D of accession number BAA 19885.1), expressed in insect cells using baculovirus expression system and purified via glutathione sepharose affinity chromatography, was purchased from Carna Biosciences (product no 02-145) and used as enzyme. As substrate for the kinase reaction the biotinylated peptide biotin-Ahx-IKKRKLTRRKSLKG (C-terminus in amide form) was used which can be purchased e.g. form the company Biosyntan (Berlin-Buch, Germany).
(§1) For the assay 50 nL of a 100 fold concentrated solution of the test compound in DMSO was pipetted into a black low volume 384 well microtiter plate (Greiner Bio-One, Frickenhausen, Germany), 2 μL of a solution of MKNK1 in aqueous assay buffer [50 mM HEPES pH 7.5, 5 mM magnesium chloride, 1.0 mM dithiothreitol, 0.005% (v/v) Nonidet-P40 (Sigma)] was added and the mixture was incubated for 15 min at 22° C. to allow pre-binding of the test compounds to the enzyme before the start of the kinase reaction. Then the kinase reaction was started by the addition of 3 μL of a solution of adenosine-tri-phosphate (ATP, 16.7 μM=>final conc. in the 5 μL assay volume is 10 μM) and substrate (0.1 μM=>final conc. in the 5 μL assay volume is 0.06 μM) in assay buffer and the resulting mixture was incubated for a reaction time of 45 min at 22° C. The concentration of MKNK1 was adjusted depending of the activity of the enzyme lot and was chosen appropriate to have the assay in the linear range, typical concentrations were in the range of 0.05 μg/ml. The reaction was stopped by the addition of 5 μL of a solution of TR-FRET detection reagents (5 nM streptavidine-XL665 [Cisbio Bioassays, Codolet, France] and 1 nM anti-ribosomal protein S6 (pSer236)-antibody from Invitrogen [#44921G] and 1 nM LANCE EU-W1024 labeled ProteinG [Perkin-Elmer, product no. AD0071]) in an aqueous EDTA-solution (100 mM EDTA, 0.1% (w/v) bovine serum albumin in 50 mM HEPES pH 7.5).
The resulting mixture was incubated for 1 h at 22° C. to allow the formation of complex between the phosphorylated biotinylated peptide and the detection reagents. Subsequently the amount of phosphorylated substrate was evaluated by measurement of the resonance energy transfer from the Eu-chelate to the streptavidine-XL. Therefore, the fluorescence emissions at 620 nm and 665 nm after excitation at 350 nm were measured in a TR-FRET reader, e.g. a Rubystar (BMG Labtechnologies, Offenburg, Germany) or a Viewlux (Perkin-Elmer). The ratio of the emissions at 665 nm and at […] was taken as the measure for the amount of phosphorylated substrate. The data were normalised (enzyme reaction without inhibitor=0% inhibition, all other assay components but no enzyme=100% inhibition). Usually the test compounds were tested on the same microtiterplate in 11 different concentrations in the range of 20 μM to 0.1 nM (20 μM, 5.9 μM, 1.7 μM, 0.51 μM, 0.15 μM, 44 nM, 13 nM, 3.8 nM, 1.1 nM, 0.33 nM and 0.1 nM, the dilution series prepared separately before the assay on the level of the 100 fold concentrated solutions in DMSO by serial 1:3.4 dilutions) in duplicate values for each concentration and […] were calculated by a 4 parameter fit.
Background: TR-FRET usually uses a lanthanide donor and a delayed reading to cut background.

Another test deals with T2, human full-length MKNK1 (Homo sapiens, UniProt Q9BUB5, T385D).
T2 construct: purchased Carna Biosciences 02-145; host or cells: insect cells (baculovirus expression system)
The experiment in a line: MKNK1 kinase high ATP assay (TR-FRET-based). The class given is biochemical. The settings on record: ATP final conc. 2 mM, 15 min preincubation, 30 min reaction at 22° C. The method, then: MKNK1 Kinase High ATP Assay
MKNK1-inhibitory activity at high ATP of compounds of the present invention after their preincubation with MKNK1 was quantified employing the TR-FRET-based MKNK1 high ATP assay as described in the following paragraphs.
A recombinant fusion protein of Glutathione-S-Transferase (GST, N-terminally) and human full-length MKNK1 (amino acids 1-424 and T344D of accession number BAA 19885.1), expressed in insect cells using baculovirus expression system and purified via glutathione sepharose affinity chromatography, was purchased from Carna Biosciences (product no 02-145) and used as enzyme. As substrate for the kinase reaction the biotinylated peptide biotin-Ahx-IKKRKLTRRKSLKG (C-terminus in amide form) was used, which can be purchased e.g. from the company Biosyntan (Berlin-Buch, Germany).
as §1, with “3.3 mM=>final” for “16.7 μM=>final”, “2 mM)” for “10 μM)”, “30” for “45”, “0.003 μg/mL.” for “0.05 μg/ml.”
The resulting mixture was incubated for 1 h at 22° C. to allow the formation of complex between the phosphorylated biotinylated peptide and the detection reagents. Subsequently the amount of phosphorylated substrate was evaluated by measurement of the resonance energy transfer from the Eu-chelate to the streptavidine-XL. Therefore, the fluorescence emissions at 620 nm and 665 nm after excitation at 350 nm were measured in a TR-FRET reader, e.g. a Rubystar (BMG Labtechnologies, Offenburg, Germany) or a Viewlux (Perkin-Elmer). The ratio of the emissions at 665 nm and at […] was taken as the measure for the amount of phosphorylated substrate. The data were normalised (enzyme reaction without inhibitor=0% inhibition, all other assay components but no enzyme=100% inhibition).

The structures appear in SMILES notation.

T2 sequence (Q9BUB5 1-424 isoform Q9BUB5-2 T344D): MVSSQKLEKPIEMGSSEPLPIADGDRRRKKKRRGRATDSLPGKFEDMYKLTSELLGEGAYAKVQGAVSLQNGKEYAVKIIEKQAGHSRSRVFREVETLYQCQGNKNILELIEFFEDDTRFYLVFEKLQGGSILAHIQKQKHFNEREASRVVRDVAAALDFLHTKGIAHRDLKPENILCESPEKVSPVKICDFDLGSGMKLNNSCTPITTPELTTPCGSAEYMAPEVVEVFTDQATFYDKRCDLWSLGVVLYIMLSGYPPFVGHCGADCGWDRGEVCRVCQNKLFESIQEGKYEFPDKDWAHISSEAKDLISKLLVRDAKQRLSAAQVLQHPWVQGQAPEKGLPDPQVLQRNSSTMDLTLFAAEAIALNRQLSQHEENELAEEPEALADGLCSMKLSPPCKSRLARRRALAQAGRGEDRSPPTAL
T1 sequence (Q9BUB5 1-424 isoform Q9BUB5-2 T344D): as above

Usually IC50 stands for the point on the concentration scale where inhibition reaches its midpoint. Low values mean higher potency, high ones lower potency. Regarding `COc1nccc2oc(-c3cnc4ccc(OC(CN)Cc5ccccc5)nn34)cc12` (stereo not shown) [Example 33, 2-{[3-(4-Methoxyfuro[3,2-c]pyridin-2-yl)imidazo[1,2-b]pyridazin-6-yl]oxy}-3-phenylpropan-1-amine], the values for the IC50 on human full-lengt MKNK1 and on human full-length MKNK1 were 99 nM and 117 nM, respectively.
As to `C[C@H](N)COc1ccc2ncc(-c3cc4c(OCC(C)(C)C)nccc4o3)n2n1` [Example 34, (2S)-1-({3-[4-(2,2-Dimethylpropoxy)furo[3,2-c]pyridin-2-yl]imidazo[1,2-b]-pyridazin-6-yl}oxy)propan-2-amine], the IC50 against human full-lengt MKNK1 came to 5 nM; against human full-length MKNK1 it was 15 nM.
With `N[C@H]1C[C@H](Oc2ccc3ncc(-c4cc5c(O)nccc5o4)n3n2)C1` [Example 35, 2-{6-[(trans-3-Aminocyclobutyl)oxy]imidazo[1,2-b]pyridazin-3-yl}furo[3,2-c]-pyridin-4-ol], the IC50 at human full-lengt MKNK1 is 21 nM; against human full-length MKNK1, 44 nM.
The matching figures for `CCOc1nccc2oc(-c3cnc4ccc(O[C@H]5C[C@H](N)C5)nn34)cc12` [Example 36, trans-3-{[3-(4-Ethoxyfuro[3,2-c]pyridin-2-yl)imidazo[1,2-b]pyridazin-6-yl]oxy}-cyclobutanamine]: 4 nM and 4 nM.
In the case of `CC(C)Oc1nccc2oc(-c3cnc4ccc(O[C@H]5C[C@H](N)C5)nn34)cc12` [Example 37, trans-3-({3-[4-(Propan-2-yloxy)furo[3,2-c]pyridin-2-yl]imidazo[1,2-b]pyridazin-6-yl}oxy)cyclobutanamine], the results for the IC50 against human full-lengt MKNK1 and against human full-length MKNK1 were 7 nM and 17 nM, respectively.
The matching figures for `CCOc1nccc2oc(-c3cnc4ccc(OC[C@@H](C)N)nn34)cc12` [Example 38, (2R)-1-{[3-(4-Ethoxyfuro[3,2-c]pyridin-2-yl)imidazo[1,2-b]pyridazin-6-yl]oxy}-propan-2-amine]: 8 nM and 23 nM.
In the case of `CCN(C(=O)OC(C)(C)C)c1nccc2oc(-c3cnc4ccc(OC[C@H](C)N)nn34)cc12` [Example 39, tert-Butyl[2-(6-{[(2S)-2-aminopropyl]oxy}imidazo[1,2-b]pyridazin-3-yl)-furo[3,2-c]pyridin-4-yl]ethylcarbamate], the IC50 was found to be 250 nM on human full-lengt MKNK1 and 593 nM against human full-length MKNK1.
The matching figures for `CCNc1nccc2oc(-c3cnc4ccc(OC[C@H](C)N)nn34)cc12` [Example 40, 2-(6-{[(2S)-2-Aminopropyl]oxy}imidazo[1,2-b]pyridazin-3-yl)-N-ethylfuro[3,2-c]pyridin-4-amine]: 5 nM and 13 nM.
